Experimental data reported in patent publication US20260184675A1, “CHIRAL ISOMERIC SULFITE COMPOUND AND APPLICATION THEREOF” (Chengdu Hanova BioSciences Co., Ltd, priority 2024, published 2026).

Key:
[1] = tested on: pest eggs of Tetranychus cinnabarinus; assay: Effect on hatching of pest eggs of Tetranychus cinnabarinus, leaf disc method; type: in vivo; details: for Hatching rate (%): 7 days after insecticide delivery; for inhibitory effect on the hatching of pest eggs of Tetranychus cinnabarinus (in words): 1 ppm
Method in brief: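 Adult female mites laid eggs on 2.0 cm Vicia faba leaf discs for up to 36 h; discs with counted eggs were dipped 10 s in compound solution or water, then kept moist. Hatched eggs were counted 7 days after treatment and control effect was calculated by formula.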

[2] = tested on: eggs of Thrips; assay: Effect on hatching of eggs of Thrips, leaf disc method; type: in vivo; details: 100 ppm; for Hatching rate (%): 5 days after insecticide delivery
Method in brief: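 Egg-bearing Vicia faba leaf discs (diameter 2.0 cm, wetted filter paper beneath) were counted microscopically for baseline eggs. They were then soaked for 10 seconds in water or in test agent at 100 ppm. After moist incubation in lidded dishes, with controlled temperature and humidity and adequate indirect light, hatched larvae were counted five days post-delivery to judge hatching inhibition.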

[3] = tested on: eggs of Tetranychus urticae; assay: Effect on hatching of eggs of Tetranychus urticae, leaf disc method; type: in vivo; details: 5 ppm; for Hatching rate (%): 5 days after insecticide delivery
Method in brief: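 This leaf disc test measured inhibition of Tetranychus urticae egg hatching. Eggs laid on Vicia faba discs were counted microscopically, and the discs were soaked for 10 seconds in compound at 5 ppm, with clear water as control. They were incubated under controlled temperature and humidity with strong indirect light, avoiding condensate. Hatched eggs, leaf damage and developmental abnormalities were recorded five days after delivery.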

[4] = tested on: Magnaporthe grisea; type: cell-based; details: 100 ppm; for Average antifungal rate (%) / Antifungal rate of Magnaporthe grisea (%), Replicate 1 / Antifungal rate of Magnaporthe grisea (%), Replicate 2 / Antifungal rate of Magnaporthe grisea (%), Replicate 3: 96-well plate; for Average antifungal rate (%): average of 3 replicates
[5] = Replicate 1, listed as 19-(R, R)
[6] = Replicate 2, listed as 19-(R, R)
[7] = Replicate 3, listed as 19-(R, R)
[8] = Replicate 1, listed as 19′-(R, R)
[9] = Replicate 2, listed as 19′-(R, R)
[10] = Replicate 1, listed as 19-(S, S)
[11] = Replicate 2, listed as 19-(S, S)
[12] = Replicate 3, listed as 19-(S, S)

| Structure (SMILES) | Hatching rate (%) ([1]; 0.25 mg/L, Replicate 1) | Hatching rate (%) ([1]; 0.25 mg/L, Replicate 2) | Number of hatched larvae 7 days after insecticide delivery ([1]; 0.25 mg/L, Replicate 1) | Number of hatched larvae 7 days after insecticide delivery ([1]; 0.25 mg/L, Replicate 2) | Hatching rate (%) ([1]; 0.5 mg/L, Replicate 1) | Hatching rate (%) ([1]; 0.5 mg/L, Replicate 2) | Number of hatched larvae 7 days after insecticide delivery ([1]; 0.5 mg/L, Replicate 2) | Hatching rate (%) ([1]; 1 mg/L, Replicate 1) | Hatching rate (%) ([1]; 1 mg/L, Replicate 2) | Number of hatched larvae 7 days after insecticide delivery ([1]; 1 mg/L, Replicate 1) | Number of hatched larvae 7 days after insecticide delivery ([1]; 1 mg/L, Replicate 2) | inhibitory rate against Magnaporthe grisea (in words) [4] | Average antifungal rate (%) [4] [%] | Antifungal rate of Magnaporthe grisea (%), Replicate 1 [4] [%] | Antifungal rate of Magnaporthe grisea (%), Replicate 2 [4] [%] | Antifungal rate of Magnaporthe grisea (%), Replicate 3 [4] [%] | inhibitory effect on the hatching of pest eggs of Tetranychus cinnabarinus (in words) [1] | inhibitory activity on the hatching of eggs of Thrips (in words) [2] | Hatching rate (%) ([2]; Replicate 3) | Number of hatched larvae 5 days after insecticide delivery ([2]; Replicate 3) | further results |
| --- | --- | --- | --- | --- | --- | --- | --- | --- | --- | --- | --- | --- | --- | --- | --- | --- | --- | --- | --- | --- | --- |
| CCC(COc1ccc(Cl)cc1Cl)OS(=O)OCCF [19-(R,R)] | 75.00 | 76.00 | 18 | 18 | 36.23 | 36.00 | 34 | 14.89 | 16.67 | 40 | 55 | strong inhibitory rate | 82.77 | 81.29 | 83.56 | 83.45 | – | – | – | – | Hatching rate (%) [2, 5]: 12.63%; Hatching rate (%) [2, 6]: 13.46%; Hatching rate (%) [2, 7]: 13.04%; Number of hatched larvae 5 days after insecticide delivery [2, 5]: 12; Number of hatched larvae 5 days after insecticide delivery [2, 6]: 14; Number of hatched larvae 5 days after insecticide delivery [2, 7]: 15; Hatching rate (%) [3, 5]: 17.98%; Hatching rate (%) [3, 6]: 17.92%; Number of hatched larvae 5 days after insecticide delivery [3, 5]: 16; Number of hatched larvae 5 days after insecticide delivery [3, 6]: 19 |
| CC(C)(COc1ccc(Cl)cc1Cl)OS(=O)OCCF (stereo not shown) [Compound 10] | – | – | – | – | – | – | – | – | – | – | – | strong inhibitory rate | 94.26 | 93.89 | 94.52 | 94.36 | excellent inhibitory effects | strong inhibitory activities | 0.00 | 0 | Hatching rate (%) ([2]; Replicate 1): 0.99%; Hatching rate (%) ([2]; Replicate 2): 0.00%; Number of hatched larvae 5 days after insecticide delivery ([2]; Replicate 1): 1; Number of hatched larvae 5 days after insecticide delivery ([2]; Replicate 2): 0; inhibitory activity on the hatching of eggs of Tetranychus urticae (in words) [3]: strong inhibitory activities; Hatching rate (%) ([3]; Replicate 1): 1.94%; Hatching rate (%) ([3]; Replicate 2): 1.35%; Number of hatched larvae 5 days after insecticide delivery ([3]; Replicate 1): 2; Number of hatched larvae 5 days after insecticide delivery ([3]; Replicate 2): 1 |
| CCC(COS(=O)OCCF)Oc1ccc(Cl)cc1Cl [19′-(R,R)] | 45.07 | 44.90 | 39 | 27 | 5.77 | 4.48 | 64 | 0.00 | 0.00 | 57 | 69 | strong inhibitory rate | – | 96.97 | 97.35 | 97.26 | excellent inhibitory effects | strong inhibitory activities | 0.00 | 0 | Number of hatched larvae 7 days after insecticide delivery ([1]; 0.5 mg/L, Replicate 1): 49; Hatching rate (%) [2, 8]: 0.00%; Hatching rate (%) [2, 9]: 0.00%; Number of hatched larvae 5 days after insecticide delivery [2, 8]: 0; Number of hatched larvae 5 days after insecticide delivery [2, 9]: 0; inhibitory activity on the hatching of eggs of Tetranychus urticae (in words) [3]: strong inhibitory activities; Hatching rate (%) [3, 8]: 0.00%; Hatching rate (%) [3, 9]: 0.00%; Number of hatched larvae 5 days after insecticide delivery [3, 8]: 0; Number of hatched larvae 5 days after insecticide delivery [3, 9]: 0 |
| CC(C)(COS(=O)OCCF)Oc1ccc(Cl)cc1Cl (stereo not shown) [S-10′] | 42.11 | 43.77 | 44 | 37 | 7.95 | 6.12 | 46 | 0.00 | 0.00 | 59 | 84 | strong inhibitory rate | 99.31 | 100.03 | 99.64 | 98.27 | excellent inhibitory effects | strong inhibitory activities | 0.00 | 0 | Number of hatched larvae 7 days after insecticide delivery ([1]; 0.5 mg/L, Replicate 1): 81; Hatching rate (%) ([2]; Replicate 1): 0.00%; Hatching rate (%) ([2]; Replicate 2): 0.00%; Number of hatched larvae 5 days after insecticide delivery ([2]; Replicate 1): 0; Number of hatched larvae 5 days after insecticide delivery ([2]; Replicate 2): 0; inhibitory activity on the hatching of eggs of Tetranychus urticae (in words) [3]: strong inhibitory activities; Hatching rate (%) ([3]; Replicate 1): 0.00%; Hatching rate (%) ([3]; Replicate 2): 0.00%; Number of hatched larvae 5 days after insecticide delivery ([3]; Replicate 1): 0; Number of hatched larvae 5 days after insecticide delivery ([3]; Replicate 2): 0 |
| CCC(COc1ccc(Cl)cc1Cl)OS(=O)OCCF [19-(S,S)] | 65.52 | 69.86 | 20 | 22 | 20.90 | 21.31 | 48 | 15.25 | 14.29 | 50 | 54 | strong inhibitory rate | 84.69 | 86.52 | 83.17 | 84.38 | – | – | – | – | Number of hatched larvae 7 days after insecticide delivery ([1]; 0.5 mg/L, Replicate 1): 53; Hatching rate (%) [2, 10]: 14.4%; Hatching rate (%) [2, 11]: 13.89%; Hatching rate (%) [2, 12]: 11.46%; Number of hatched larvae 5 days after insecticide delivery [2, 10]: 18; Number of hatched larvae 5 days after insecticide delivery [2, 11]: 15; Number of hatched larvae 5 days after insecticide delivery [2, 12]: 11; Hatching rate (%) [3, 10]: 17.48%; Hatching rate (%) [3, 11]: 14.74%; Number of hatched larvae 5 days after insecticide delivery [3, 10]: 18; Number of hatched larvae 5 days after insecticide delivery [3, 11]: 14 |
